Measured values: ChEMBL document CHEMBL1124687, “Analogues of atriopeptin(103-125)amide having high binding selectivity” (J Med Chem, 1989)
Positions of bridges follow the written chain, without caps; N, C: chain ends. Non-standard residues stand in square brackets, D forms with d. Residues, ends and D or L forms follow the SMILES beside them. ξ: configuration not given here. Nva = CCC[C@H](N)C(=O)O; Abu = CC[C@H](N)C(=O)O; ξA = CC(N)C(=O)O

How the values were obtained:
Oryctolagus cuniculus = species on record: Oryctolagus cuniculus; test: Binding affinity for vasorelaxant receptor by competitive displacement of [125I]-AP(103-126) from rabbit lung membranes; assay type: tissue-based; conditions: Membrane
[1] = molecular target: Atrial natriuretic peptide receptor (Homo sapiens) (UniProt P20594+P16066+P17342); test: Selectivity factor, ratio of NVR and VR relative binding potency; assay type: protein assay; conditions: Oryctolagus cuniculus
[2] = molecular target: T1, Atrial natriuretic peptide receptor 3 (Homo sapiens) (UniProt P17342); test: Binding affinity for non-vasorelaxant receptor by competitive displacement of [125I]-AP(103-126) from rabbit lung membranes; assay type: tissue-based; conditions: Oryctolagus cuniculus, Membrane, target entry is the homologue from another species
T1 sequence (whole entry): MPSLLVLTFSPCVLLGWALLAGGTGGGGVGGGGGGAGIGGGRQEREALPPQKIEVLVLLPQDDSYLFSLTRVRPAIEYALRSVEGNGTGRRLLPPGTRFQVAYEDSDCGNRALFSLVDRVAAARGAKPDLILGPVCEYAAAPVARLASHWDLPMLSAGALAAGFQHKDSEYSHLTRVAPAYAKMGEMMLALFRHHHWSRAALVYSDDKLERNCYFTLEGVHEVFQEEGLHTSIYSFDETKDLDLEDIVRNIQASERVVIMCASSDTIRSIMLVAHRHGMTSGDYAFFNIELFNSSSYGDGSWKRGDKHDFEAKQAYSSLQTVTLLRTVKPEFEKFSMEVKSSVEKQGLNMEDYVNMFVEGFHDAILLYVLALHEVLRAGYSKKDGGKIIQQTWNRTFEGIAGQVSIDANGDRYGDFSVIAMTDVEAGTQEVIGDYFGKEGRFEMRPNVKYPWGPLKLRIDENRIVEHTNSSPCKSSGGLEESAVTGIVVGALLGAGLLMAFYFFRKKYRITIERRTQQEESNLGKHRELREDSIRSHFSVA

SMILES | Relative potency (Oryctolagus cuniculus) | Ratio [1] | Relative potency [2]
CC[C@H](C)[C@@H]1NC(=O)[C@H](CCCN=C(N)N)NC(=O)CNC(=O)CNC(=O)[C@H](Cc2ccccc2)NC(=O)[C@H](CO)NC(=O)[C@@H](NC(=O)[C@@H](N)CO)CSSC[C@@H](C(=O)N[C@@H](CO)C(=O)N[C@@H](Cc2ccccc2)C(=O)N[C@@H](CCCN=C(N)N)C(N)=O)NC(=O)[C@H](CO)NC(=O)CNC(=O)[C@H](CC(C)C)NC(=O)CNC(=O)[C@H](CO)NC(=O)[C@H](CCC(N)=O)NC(=O)[C@H](C)NC(=O)CNC(=O)[C@H]([C@@H](C)CC)NC(=O)[C@@H](CCCN=C(N)N)NC(=O)[C@H](CC(=O)O)NC1=O | 0.005 | 400 | 2
CC[C@H](C)[C@@H]1NC(=O)[C@H](CCCN=C(N)N)NC(=O)[C@H](CC(=O)O)NC(=O)[C@H]([C@@H](C)CC)NC(=O)[C@H](CCCN=C(N)N)NC(=O)CNC(=O)CNC(=O)[C@H](Cc2ccccc2)NC(=O)CNC(=O)[C@@H](NC(=O)[C@@H](N)CO)CSSC[C@H](C(=O)N[C@@H](CC(N)=O)C(=O)N[C@@H](CO)C(=O)N[C@@H](Cc2ccccc2)C(=O)N[C@@H](CCCN=C(N)N)C(N)=O)NC(=O)CNC(=O)[C@H](CC(C)C)NC(=O)CNC(=O)[C@H](CO)NC(=O)[C@H](CCC(N)=O)NC(=O)[C@H](C)NC(=O)CNC1=O | 0.056 | 32 | 1.8
CC[C@H](C)[C@@H]1NC(=O)[C@H](CCCN=C(N)N)NC(=O)[C@H](CC(=O)O)NC(=O)[C@H]([C@@H](C)CC)NC(=O)[C@H](CCCN=C(N)N)NC(=O)CNC(=O)CNC(=O)[C@H](Cc2ccccc2)NC(=O)[C@H](NC(=O)[C@H](CO)NC(=O)[C@@H](N)CO)CSSC[C@@H](C(=O)N[C@@H](CO)C(=O)N[C@@H](Cc2ccccc2)C(=O)N[C@@H](CCCN=C(N)N)C(N)=O)NC(=O)[C@H](CSC)NC(=O)CNC(=O)[C@H](CC(C)C)NC(=O)CNC(=O)[C@H](CO)NC(=O)[C@H](CCC(N)=O)NC(=O)[C@H](C)NC(=O)CNC1=O | 0.1 | 31 | 3.1
CC[C@H](C)[C@@H]1NC(=O)[C@H](CCCN=C(N)N)NC(=O)[C@H](CC(=O)O)NC(=O)[C@H]([C@@H](C)CC)NC(=O)[C@H](CCCN=C(N)N)NC(=O)CNC(=O)CNC(=O)[C@H](Cc2ccccc2)NC(=O)[C@H](CSC)NC(=O)[C@@H](NC(=O)[C@@H](N)CO)CSSC[C@@H](C(=O)N[C@@H](CC(N)=O)C(=O)N[C@@H](CO)C(=O)N[C@@H](Cc2ccccc2)C(=O)N[C@@H](CCCN=C(N)N)C(N)=O)NC(=O)CNC(=O)[C@H](CC(C)C)NC(=O)CNC(=O)[C@H](CO)NC(=O)[C@H](CCC(N)=O)NC(=O)[C@H](C)NC(=O)CNC1=O (H-SCC(Me)FGGRIDRIGAQSGLGCNSFR-NH2; disulfide 2-19) | 0.28 | 24 | 6.6
CC[C@H](C)[C@@H]1NC(=O)[C@H](CCCN=C(N)N)NC(=O)[C@H](CC(=O)O)NC(=O)[C@H]([C@@H](C)CC)NC(=O)[C@H](CCCN=C(N)N)NC(=O)CNC(=O)CNC(=O)[C@H](Cc2ccccc2)NC(=O)CNC(=O)[C@@H](NC(=O)[C@@H](N)CO)CSSC[C@@H](C(=O)N[C@@H](CO)C(=O)N[C@@H](Cc2ccccc2)C(=O)N[C@@H](CCCN=C(N)N)C(N)=O)NC(=O)CNC(=O)CNC(=O)[C@H](CC(C)C)NC(=O)CNC(=O)[C@H](CO)NC(=O)[C@H](CCC(N)=O)NC(=O)[C@H](C)NC(=O)CNC1=O (H-SCGFGGRIDRIGAQSGLGGCSFR-NH2; disulfide 2-20) | 0.0069 | 217 | 1.5
CC[C@H](C)[C@@H]1NC(=O)[C@H](CCCN=C(N)N)NC(=O)[C@H](CC(=O)O)NC(=O)[C@H]([C@@H](C)CC)NC(=O)[C@H](CCCN=C(N)N)NC(=O)CNC(=O)CNC(=O)[C@H](Cc2ccccc2)NC(=O)[C@H](CO)NC(=O)[C@@H](NC(=O)[C@@H](N)CO)CSSC[C@@H](C(=O)N[C@@H](CC(N)=O)C(=O)N[C@@H](CO)C(=O)N[C@@H](Cc2ccccc2)C(=O)N[C@@H](CCCN=C(N)N)C(N)=O)NC(=O)CNC(=O)[C@H](CC(C)C)NC(=O)CNC(=O)[C@H](CO)NC(=O)[C@H](CCC(N)=O)NC(=O)[C@H](C)NC(=O)CNC1=O (H-SCSFGGRIDRIGAQSGLGCNSFR-NH2; disulfide 2-19) | 0.24 | 16 | 3.8
CC[C@@H]1NC(=O)[C@@H](NC(=O)[C@@H](N)CO)CSSC[C@@H](C(=O)N[C@@H](CC(N)=O)C(=O)N[C@@H](CO)C(=O)N[C@@H](Cc2ccccc2)C(=O)N[C@@H](CCCN=C(N)N)C(N)=O)NC(=O)CNC(=O)[C@H](CC(C)C)NC(=O)CNC(=O)[C@H](CO)NC(=O)[C@H](CCC(N)=O)NC(=O)[C@H](C)NC(=O)CNC(=O)[C@H]([C@@H](C)CC)NC(=O)[C@H](CCCN=C(N)N)NC(=O)[C@H](CC(=O)O)NC(=O)[C@H]([C@@H](C)CC)NC(=O)[C@H](CCCN=C(N)N)NC(=O)CNC(=O)CNC(=O)[C@H](Cc2ccccc2)NC1=O (H-SC[Abu]FGGRIDRIGAQSGLGCNSFR-NH2; disulfide 2-19) | 0.053 | 40 | 2.1
CCC[C@@H]1NC(=O)[C@@H](NC(=O)[C@@H](N)CO)CSSC[C@@H](C(=O)N[C@@H](CC(N)=O)C(=O)N[C@@H](CO)C(=O)N[C@@H](Cc2ccccc2)C(=O)N[C@@H](CCCN=C(N)N)C(N)=O)NC(=O)CNC(=O)[C@H](CC(C)C)NC(=O)CNC(=O)[C@H](CO)NC(=O)[C@H](CCC(N)=O)NC(=O)[C@H](C)NC(=O)CNC(=O)[C@H]([C@@H](C)CC)NC(=O)[C@H](CCCN=C(N)N)NC(=O)[C@H](CC(=O)O)NC(=O)[C@H]([C@@H](C)CC)NC(=O)[C@H](CCCN=C(N)N)NC(=O)CNC(=O)CNC(=O)[C@H](Cc2ccccc2)NC1=O (H-SC[Nva]FGGRIDRIGAQSGLGCNSFR-NH2; disulfide 2-19) | 0.0084 | 89 | 0.75
CCC[C@@H]1NC(=O)CNC(=O)[C@H](CC(C)C)NC(=O)CNC(=O)[C@H](CO)NC(=O)[C@H](CCC(N)=O)NC(=O)[C@H](C)NC(=O)CNC(=O)[C@H]([C@@H](C)CC)NC(=O)[C@H](CCCN=C(N)N)NC(=O)[C@H](CC(=O)O)NC(=O)[C@H]([C@@H](C)CC)NC(=O)[C@H](CCCN=C(N)N)NC(=O)CNC(=O)CNC(=O)[C@H](Cc2ccccc2)NC(=O)[C@H](CCC)NC(=O)[C@@H](NC(=O)[C@@H](N)CO)CSSC[C@@H](C(=O)N[C@@H](CO)C(=O)N[C@@H](Cc2ccccc2)C(=O)N[C@@H](CCCN=C(N)N)C(N)=O)NC1=O (H-SC[Nva]FGGRIDRIGAQSGLG[Nva]CSFR-NH2; disulfide 2-20) | 0.001 | 470 | 0.47
CC[C@H](C)[C@@H]1NC(=O)[C@H](CCCN=C(N)N)NC(=O)[C@H](CC(=O)O)NC(=O)[C@H]([C@@H](C)CC)NC(=O)[C@H](CCCN=C(N)N)NC(=O)CNC(=O)CNC(=O)[C@H](Cc2ccccc2)NC(=O)C(C)NC(=O)[C@@H](NC(=O)[C@@H](N)CO)CSSC[C@@H](C(=O)N[C@@H](CC(N)=O)C(=O)N[C@@H](CO)C(=O)N[C@@H](Cc2ccccc2)C(=O)N[C@@H](CCCN=C(N)N)C(N)=O)NC(=O)CNC(=O)[C@H](CC(C)C)NC(=O)CNC(=O)[C@H](CO)NC(=O)[C@H](CCC(N)=O)NC(=O)[C@H](C)NC(=O)CNC1=O (some centres undefined) (H-SC[ξA]FGGRIDRIGAQSGLGCNSFR-NH2; disulfide 2-19) | 0.088 | 25 | 2.2
CC[C@H](C)[C@@H]1NC(=O)[C@H](CCCN=C(N)N)NC(=O)[C@H](CC(=O)O)NC(=O)[C@H]([C@@H](C)CC)NC(=O)[C@H](CCCN=C(N)N)NC(=O)CNC(=O)CNC(=O)[C@H](Cc2ccccc2)NC(=O)[C@@H](NC(=O)[C@H](CO)NC(=O)[C@@H](N)CO)CSSC[C@@H](C(=O)NCC(=O)N[C@@H](CC(N)=O)C(=O)N[C@@H](CO)C(=O)N[C@@H](Cc2ccccc2)C(=O)N[C@@H](CCCN=C(N)N)C(N)=O)NC(=O)[C@H](CC(C)C)NC(=O)CNC(=O)[C@H](CO)NC(=O)[C@H](CCC(N)=O)NC(=O)[C@H](C)NC(=O)CNC1=O (H-SSCFGGRIDRIGAQSGLCGNSFR-NH2; disulfide 3-18) |  | 1 | 0.91
CC[C@H](C)[C@@H]1NC(=O)[C@H](CCCN=C(N)N)NC(=O)[C@H](CC(=O)O)NC(=O)[C@H]([C@@H](C)CC)NC(=O)[C@H](CCCN=C(N)N)NC(=O)CNC(=O)CNC(=O)[C@H](Cc2ccccc2)NC(=O)[C@@H](NC(=O)[C@H](CO)NC(=O)[C@@H](N)CO)CSSC[C@@H](C(=O)N[C@@H](CC(N)=O)C(=O)N[C@@H](CO)C(=O)N[C@@H](Cc2ccccc2)C(=O)N[C@@H](CCCN=C(N)N)C(N)=O)NC(=O)CNC(=O)[C@H](CC(C)C)NC(=O)CNC(=O)[C@H](CO)NC(=O)[C@H](CCC(N)=O)NC(=O)[C@H](C)NC(=O)CNC1=O (H-SSCFGGRIDRIGAQSGLGCNSFR-NH2; disulfide 3-19) |  | 1 | 1
